Entries after “also recorded” stand apart in the source; their conditions may differ.
Legend:
PPARg [1] = target: T1, PPARg (Homo sapiens, UniProt P37231); details: cited from earlier work
T1 sequence (P37231 1-505): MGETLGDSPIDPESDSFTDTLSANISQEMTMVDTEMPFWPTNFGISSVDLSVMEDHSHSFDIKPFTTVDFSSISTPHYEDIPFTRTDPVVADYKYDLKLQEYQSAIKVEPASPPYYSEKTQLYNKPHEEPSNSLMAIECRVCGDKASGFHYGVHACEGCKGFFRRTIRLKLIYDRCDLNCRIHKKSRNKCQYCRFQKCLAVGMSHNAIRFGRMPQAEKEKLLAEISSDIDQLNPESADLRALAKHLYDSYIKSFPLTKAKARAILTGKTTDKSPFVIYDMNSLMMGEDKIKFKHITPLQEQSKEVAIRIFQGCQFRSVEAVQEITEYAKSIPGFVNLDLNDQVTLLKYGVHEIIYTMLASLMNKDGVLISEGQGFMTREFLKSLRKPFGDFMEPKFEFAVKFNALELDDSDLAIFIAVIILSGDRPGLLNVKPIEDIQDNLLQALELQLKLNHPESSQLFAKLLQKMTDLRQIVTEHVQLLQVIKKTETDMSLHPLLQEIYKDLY

PPARg [2] = test: PPARg transactivation assay (GAL4-PPARg/GAL4-luc) in HEK-293 and NIH-3T3 cells; type: cell-based, human; details: for PPARg transactivation (luciferase activity): treated 6 hours, compared with untreated cells
Protocol: The concentration of the tested compound (μM) is shown at the x-axis and the PPARg activation fold is shown at the y-axis. […]. Fold activation level was calculated, taking the control sample (−), without the presence of any PPARg agonist or activating agent, as reference. Data are expressed as mean±S.D. of at least three independent experiments.
To investigate the biological activities of the novel compounds we performed PPARg transactivation assays in HEK-293 cells and in NIH-3T3 fibroblasts cells.
HEK293T cells and human primary fibroblasts cells were maintained at 37° C. in a humidified atmosphere containing 5% CO2 in DMEM supplemented with 10% fetal calf serum (FBS), and 1% (v/v) penicillin/streptomycin. Rosiglitazone was purchased from Cayman Chemical Company (Ann Arbor, Mich., USA). All other reagents were from Sigma Co (St Louis, Mo., USA). HEK293T cells (2×10^3/well) (FIGS. 1A, 1B and 1C) or NIH-3T3 cells (5×10^3/well) (FIG. 2) were seeded in BD Falcon™ White with Clear Bottom 96-well Microtest™ Optilux™ Plate for 24 hours. Afterwards, cells were transiently co-transfected with the expression vector GAL4-PPARγ and the luciferase reporter vector GAL4-luc using Roti©-Fect (Carl Roth, Karlsruhe, Germany) following the manufacturer's instructions. Twenty-four h post-transfection, cells were pretreated with increasing doses of the compounds for 6 hours. Then, the cells were lysed in 25 mM Tris-phosphate pH 7.8, 8 mM MgCl2, 1 mM DTT, 1% Triton X-100, and 7% glycerol. Luciferase activity was measured in the cell lysate using a TriStar LB 941 multimode microplate reader (Berthold) and following the instructions of the Luciferase Assay Kit (Promega, Madison, Wis., USA). Protein concentration was measured by the Bradford assay (Bio-Rad, Richmond, Calif., USA). The background obtained with the lysis buffer was subtracted in each experimental value and the specific transactivation expressed as a fold induction over untreated cells. All the experiments were repeated at least three times. The plasmids used were Gal4-hPPARgamma (plasmid name: pCMV-BD-hPPARg, Sinal Laboratory, Dept. of Pharmacology, Dalhousie University) and Gal4 luc reporter plasmid that includes five Gal4 DNA binding sites fused to the luciferase gene. […]. Data are given as means with deviation standard error bars of three replicates. […].

PPARg [3] = test: Inhibition of Rosiglitazone-induced PPARg activation in HEK-293 cells; type: cell-based, human; details: pretreated 30 min, then RSZ 1 μM for 6 hours
Protocol: (A) HEK-293 cells were co-transfected with GAL4-PPARg and GAL4-luc. […] Protein lysates were prepared and analyzed for luciferase activity. The concentration of the tested compound (μM) is shown at the x-axis and the PPARg activation fold is shown at the y-axis.
(A) HEK293T cells were maintained at 37° C. in a humidified atmosphere containing 5% CO2 in DMEM supplemented with 10% fetal calf serum (FBS), and 1% (v/v) penicillin/streptomycin. Rosiglitazone was purchased from Cayman Chemical Company (Ann Arbor, Mich., USA). HEK293T cells (2×10^3/well) (FIG. 3A) were seeded in BD Falcon™ White with Clear Bottom 96-well Microtest™ Optilux™ Plate for 24 hours. Afterwards, cells were transiently co-transfected with the expression vector GAL4-PPARγ and the luciferase reporter vector GAL4-luc using Roti©-Fect (Carl Roth, Karlsruhe, Germany) following the manufacturer's instructions. Twenty-four h post-transfection, cells were pretreated with increasing doses of the compounds for 30 min and then stimulated with RSZ (1 μM) for 6 hours.

NIH-3T3 cells = test: TGFb-induced collagen production, Sirius Red-Fast Green method; type: cell-based; details: 1 hour pre-incubation, TGFb 50 ng/ml 24 hours
Protocol: The production of collagen was carried out using the Sirius Red-Fast Green method, designed to quantify the amount of collagen and non-collagen proteins in cell pellets. The collagen production was determined at 540 nm and 605 nm in a Genesis 10 UV scanning spectrofluorometer (Thermo Fisher Scientific). To calculate the amounts of collagen, first, we corrected the OD 540 value by subtracting the contribution by Fast Green, which interfere in the absorbance at 540 nm. Fast Green contributes 29.1% of the OD 540 value. The Color equivalence is 37.8 for collagen and 2.04 for non-collagen proteins at OD 540 and […], respectively. Collagen(pg/100 μl cell pellet)={[OD 540−(OD 605×0.291)]/37.8×1000}×10^6.
The experiments were repeated three times, and the results were expressed as a fold induction over untreated cells.
The production of collagen was carried out using the Sirius Red-Fast Green method, designed to quantify the amount of collagen and non-collagen proteins in cell pellets. NIH-3T3 cells were seeded at a density of 5×10^4/well in 24 well plates and they were incubated overnight at 37° C. to allow cell attachment. Next, cells were pre-incubated 1 hour with the indicated concentrations of compounds III, V, VIII and X and TGFb (50 ng/ml) during 24 hours. After the treatment, the cell pellets were extracted overnight at 4° C. with 100 μl of 0.5M acetic acid. Then, 1 ml of the dye solution (0.1% Sirius Red and 0.1% Fast Green dissolved in saturated picric acid) was added to the cell pellets and mixed gently at room temperature for 30 minutes. Next, samples were centrifuged at 10,000 g for 5 minutes to pellet the collagen. The supernatants were carefully removed without disturbing the pellet and 1 ml of 0.1 M hydrochloric acid was added to each tube to remove unbound dye. Samples were centrifuged at 10,000 g for 5 minutes and 1 ml of 0.5 M sodium hydroxide was added to each tube and vortex vigorously to release the bound dye. Samples were centrifuged at 2500 g for 5 minutes to re-pellet any cell debris.
The collagen production was determined and the results were expressed as a fold induction over untreated cells.

Jurkat cells [4] = test: ROS generation (H2DCF-DA, flow cytometry); details: 6 hours, increasing concentrations
Jurkat cells [5] = test: Mitochondrial membrane potential (MitoTracker Red CMXR, flow cytometry); type: cell-based; details: 2 hours, increasing concentrations
human COL1A2 promoter = test: TGFb-induced collagen type I gene transcription (COL1A2-Luc) in NIH-3T3 fibroblasts; type: cell-based; details: 30 min pre-incubation, TGFb 50 ng/ml 6 h
Protocol: To investigate the potential anti-fibrotic activity of CBD-derivatives NIH-3T3 fibroblast cells were transiently transfected with the plasmid COL1A2-Luc plasmid by using Roti©-Fect according to the manufacturer instructions. The COL1A2-luciferase construct contains sequences from −353 to +58 bp of the human COL1A2 promoter fused to the luciferase reporter gene (pGL2 basic, Promega, Madison, Wis.). […] Protein lysates were prepared and analyzed for luciferase activity. The concentration of the tested compound (μM) is shown at the x-axis and the percentage of COL1A2 activation is shown at the y-axis considering 100% activation the effect of TGFb in the absence of the compounds. Data are expressed as mean±SD of at least three independent experiments.
Cultured NIH-3T3 fibroblast cells were transiently transfected with the plasmid COL1A2-Luc plasmid that contains sequences from −353 to +58 bp of the human COL1A2 promoter fused to the luciferase reporter gene. Twenty-four hour later the cells were incubated with compounds III, V, VIII and X (as examples) for 30 min and treated with TGFb (50 ng/ml) for 6 h. Protein lysates were prepared and analyzed for luciferase activity.

Row | Molecule | PPARg transactivation (luciferase activity) (PPARg [2]) | RSZ-induced PPARg transactivation (PPARg [3]) | TGFb-induced collagen production (NIH-3T3 cells) | intracellular ROS levels (Jurkat cells [4]) | mitochondrial membrane potential (Jurkat cells [5]) | TGFb-induced collagen type I gene transcription (human COL1A2 promoter) | other results
1 | 4 methyl-CBD-quinone |  |  |  |  |  |  | affinity for PPARg compared to parent molecule CBD (PPARg [1]): higher affinity
2 | 4-formyl-methoxy-CBD-quinone |  |  |  |  |  |  | affinity for PPARg compared to parent molecule CBD (PPARg [1]): higher affinity
3 | C=C(C)[C@@H]1CCC(C)=C[C@H]1C1=C(O)C(=O)C(CCCCC)=C(NCC)C1=O [Compound II, (1′R,6′R)-3-(Ethylamine)-6-hydroxy-3′-methyl-4-pentyl-6′-(prop-1-en-2-yl)-[1,1′-bi(cyclohexane)]-2′,3,6-triene-2,5-dione] | the most active compounds |  |  |  |  |  | 
4 | C=C(C)[C@@H]1CCC(C)=C[C@H]1C1=C(O)C(=O)C(CCCCC)=C(NCCCCC)C1=O [Compound III, (1′R,6′R)-3-(Pentylamine)-6-Hydroxy-3′-methyl-4-pentyl-6′-(prop-1-en-2-yl)-[1,1′-bi(cyclohexane)]-2′,3,6-triene-2,5-dione] | the most active compounds | decrease | clearly inhibited | not reactive; also recorded: unable to induce ROS accumulation significantly | did not induce a loss | clearly inhibited | 
5 | C=C(C)[C@@H]1CCC(C)=C[C@H]1C1=C(O)C(=O)C(CCCCC)=C(NCC(C)C)C1=O [Compound IV, (1′R,6′R)-3-(Isobutylamine)-6-Hydroxy-3′-methyl-4-pentyl-6′-(prop-1-en-2-yl)-[1,1′-bi(cyclohexane)]-2′,3,6-triene-2,5-dione] | the most active compounds |  |  |  |  |  | 
6 | C=C(C)[C@@H]1CCC(C)=C[C@H]1C1=C(O)C(=O)C(CCCCC)=C(NCCCC)C1=O [Compound V, (1′R,6′R)-3-(Butylamine)-6-hydroxy-3′-methyl-4-pentyl-6′-(prop-1-en-2-yl)-[1,1′-bi(cyclohexane)]-2′,3,6-triene-2,5-dione] | the most active compounds | decrease | clearly inhibited | not reactive; also recorded: unable to induce ROS accumulation significantly | did not induce a loss | clearly inhibited | 
7 | C=C(C)[C@@H]1CCC(C)=C[C@H]1C1=C(O)C(=O)C(CCCCC)=C(NC(C)C)C1=O [Compound VII, (1′R,6′R)-3-(Isopropylamine)-6-Hydroxy-3′-methyl-4-pentyl-6′-(prop-1-en-2-yl)-[1,1′-bi(cyclohexane)]-2′,3,6-triene-2,5-dione] | the most active compounds |  |  | not reactive | did not induce a loss |  | 
8 | C=C(C)[C@@H]1CCC(C)=C[C@H]1C1=C(O)C(=O)C(CCCCC)=C(NCc2ccccc2)C1=O [Compound VIII, (1′R,6′R)-3-(Benzylamine)-6-hydroxy-3′-methyl-4-pentyl-6′-(prop-1-en-2-yl)-[1,1′-bi(cyclohexane)]-2′,3,6-triene-2,5-dione] | the most active compounds | decrease | clearly inhibited |  |  | clearly inhibited | 
9 | C=C(C)[C@@H]1CCC(C)=C[C@H]1C1=C(O)C(=O)C(CCCCC)=C(NCCC(C)C)C1=O [Compound X, (1′R,6′R)-3-(Isopentylamine-6-Hydroxy)-3′-methyl-4-pentyl-6′-(prop-1-en-2-yl)-[1,1′-bi(cyclohexane)]-2′,3,6-triene-2,5-dione] |  | decrease | clearly inhibited | not reactive; also recorded: unable to induce ROS accumulation significantly | did not induce a loss | clearly inhibited | 
10 | C=C(C)[C@@H]1CCC(C)=C[C@H]1C1=C(O)C(=O)C(CCCCC)=C(C(=O)OC/C=C(\C)CCC=C(C)C)C1=O [Compound XIII, (E)-3,7-dimethylocta-2,6-dienyl-4-hydroxy-5-((1R,6R)-3-methyl-6-(prop-1-en-2-yl)cyclohex-2-enyl)-3,6-dioxo-2-pentylcyclohexa-1,4-dienecarboxylate] |  | decrease |  |  |  |  | 
11 | CN(CCOc1ccc(CC2SC(=O)NC2=O)cc1)c1ccccn1 (stereo not shown) [Rosiglitazone, reference compound] |  |  |  |  |  |  | increase of PPARg activity (fold induction) (PPARg [2]; 1 μM concentration): more than 100 times
12 | CBD-1,4-dihydroxyquinone |  |  |  |  |  |  | affinity for PPARg compared to parent molecule CBD (PPARg [1]): higher affinity
